Experimental data published in patent US7741368B2, “Approach to antimicrobial host defense with molecular shields with EPA and DHA analogs” (The Brigham and Women's Hospital, Inc., priority 2001, dated 2010).

System: BPI
Settings: confluent Caco2 intestinal epithelial monolayers, 1 μM, 24 hr, β actin internal standard (FIG. 5)

Compound: CC[C@@H](O)/C=C/C=C\C[C@@H](O)/C=C/C=C/C=C\[C@@H](O)CCCC(=O)O [5S,12R,18R-tri-HEPE]
- fold induction of BPI mRNA: BPI induction
